Assay results as given in US8426406B2, “Glucocorticoid receptor agonist comprising 2,2,4-trimethyl-6-phenyl-1,2-dihydroquinoline derivatives having substituted oxy group” (Santen Pharmaceutical Co., Ltd., priority 2008, dated 2013).

Legend:
[1] = test system: atopic dermatitis model in mice; assay: Inhibitory effect test on the vascular hyper-permeability in the atopic dermatitis model; format: in vivo; conditions: DNFB, 1% (W/W) test compound ointment on ears, 21 times in total, dye leakage vs vehicle, 12 ears in 6 animals
Experimental: In order to evaluate the effects in atopic dermatitis of the present compound, the inhibitory effects of test compound on the vascular hyper-permeability in the atopic dermatitis model in mice were investigated. Procedure of atopic dermatitis model and estimation method was used according to the method of Nagai et al. (J. Pharmacol. Exp. Ther., 283: 321-327 (1997)) with modification. The inhibitory effects were calculated based on dye leakage in vehicle-treated group (control) and test compound-treated group.
The test compound was mixed with white petrolatum, whereby a 1% (W/W) test compound ointment was prepared.
1) Mice were challenged by topical instillation of 25 μL of 0.15% DNFB solution on both sides of both ears once a week for 5 weeks.
2) Test compounds were administered by topical instillation of 25 μL ointments on each side of both ears five times a week from the previous day of the 1st DNFB painting to the previous day of 5th DNFB painting, 21 times in total. Mice were painted with the test compound ointment onto the ear, 25 μL to the inner and 25 μL to outer side. In vehicle-treated group (control group), white petrolatum was administered by topical instillation in the same way.
3) Dyes, a solution of 0.2% Evans blue, were administered to mice intravenously just after the 5th DNFB painting. Ear tissues were removed 2 hours after the intravenous injection of dyes. Then each removed tissue was put into dye extract and dye was extracted. The absorbance of each extract was determined with a spectrophotometer. The amount of dye leakage was calculated from obtained absorbance. The inhibition ratio of the vascular hyper-permeability associated with atopic dermatitis of test compound-treatment group was calculated according to the following equation 1. The inhibition ratio of the vascular hyper-permeability of test compound-treatment group(%)=(1−Ax/Ao)×100 (Calculation Equation 1) Ao: the amount of dye leakage in vehicle-treated group (Control) Ax: the amount of dye leakage in test compound-treated group (Result and Discussion)

[2] = test system: IL-6 production induced by lipopolysaccharide (LPS) in human corneal epithelial cells; assay: Evaluation test for GR agonist activity: inhibition of LPS-induced IL-6 production in human corneal epithelial cells (HCE-T); format: cell-based; conditions: Corneal epithelial cell, 10 μL of 100 μM test compound solution per well, 4 hours incubation, efficacy relative to DEX
Method in brief: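 SV40-immortalized HCE-T cells were treated with test compound (100 μM solution, stock before dilution into well) plus LPS (1 μg/mL solution, likewise pre-dilution) for 4 hours in 10% FBS-DMEM/F12. IL-6 in supernatants was measured by HTRF. Inhibition was calculated relative to LPS-plus-DMSO and no-LPS controls, and efficacy was expressed as % of DEX inhibition.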

[3] = test system: allergic conjunctivitis model in mice; assay: Inhibitory effect on the vascular hyper-permeability in allergic conjunctivitis model; format: in vivo; conditions: Mus musculus, 1% (W/V) test compound suspension instilled to the right eye three times before ovalbumin instillation, dye leakage vs vehicle, mean of 5-6 eyes, read-out: The inhibition ratio of the vascular hyper-permeability (%)
Experimental: In order to evaluate anti-allergic effect, inhibitory effect on the vascular hyper-permeability in allergic conjunctivitis model in mice was examined. This effect was calculated based on dye leakages of vehicle-treated group (control group) and test compound-treated group.
By adding 0.5% polysorbate 80/saline to the test compound, a 1% (W/V) test compound suspension was prepared.
1) Ovalbumin absorbed on aluminum hydroxide gel was dissolved in saline (20 μg ovalbumin/mL), and male BALE/c mice, 6 weeks old, were actively sensitized to the antigen by intraperitoneal injections of 500 μL of it.
2) On the 6th day from sensitization, sensitized mice were boosted by additional intraperitoneal injections of 500 μL ovalbumin absorbed on aluminum hydroxide gel (20 μg ovalbumin/mL).
3) On the 11th day, 12th day, 13th day, 14th day and 15th day from the first sensitization, allergic conjunctivitis were induced by installations to the right eyes of the mice of […] of 50% glycerol solution containing 15% (W/V) ovalbumin.
4) […] of test compound suspension per eye was instilled to the right eye of the above mice 15 min, 1 hr and 3 hrs before ovalbumin instillation (three times) on the 15th day from sensitization. In vehicle-treated group (control group), the mice were instilled with 0.5% polysorbate 80/saline in substitution for test compound suspension.
5) Just before ovalbumin instillation on the 15th day from sensitization, all animals received a tail intravenous injection of 0.1% Evans blue dye. The right periocular tissues of the mice, which were the leaked parts of dye, were collected 30 min after ovalbumin instillation. The dye was extracted from the tissues with the dye extraction liquid. Then the absorbance of the dye extract was measured. The dye leakage was calculated from the absorbance value, and the inhibition ratio of the vascular hyper-permeability of test compound-treated group was calculated according to calculation equation 1. The inhibition ratio of the vascular hyper-permeability of test compound-treated group(%)=(1−Ax/Ao)×100 (Calculation Equation 1) Ao: Dye leakage in vehicle-treated group (control group) Ax: Dye leakage in test compound-treated group (Test Results and Discussion)

Row | Structure (SMILES) | Inhibition ratio of the vascular hyper-permeability (%) [1] | Emax [2] | inhibition in vivo at 10000 µg/mL [3]
1 | COc1cc(OC(=O)c2cccnc2)ccc1-c1ccc2c(c1COc1cc([N+](=O)[O-])ccc1C)C(C)=CC(C)(C)N2 [Compound 1-72, 6-[2-Methoxy-4-(pyridin-3-ylcarbonyloxy)phenyl]-5-(2-methyl-5-nitrophenoxymethyl)-2,2,4-trimethyl-1,2-dihydroquinoline] | 15% | 82% | 21%
2 | COc1cc(OC(=O)c2ccsc2)ccc1-c1ccc2c(c1COc1cc(F)ccc1C)C(C)=CC(C)(C)N2 [Compound 1-12, 5-(5-Fluoro-2-methylphenoxymethyl)-6-[2-methoxy-4-(thiophen-3-ylcarbonyloxy)phenyl]-2,2,4-trimethyl-1,2-dihydroquinoline] | 22% | 85% | 17%
3 | COc1cc(OC(=O)c2ccco2)ccc1-c1ccc2c(c1COc1cc(F)ccc1C)C(C)=CC(C)(C)N2 [Compound 1-13, 5-(5-Fluoro-2-methylphenoxymethyl)-6-[4-(furan-2-ylcarbonyloxy)-2-methoxyphenyl]-2,2,4-trimethyl-1,2-dihydroquinoline] | 13% | 94% | 24%
4 | CCCS(=O)(=O)Oc1ccc(-c2ccc3c(c2CNc2ccccc2OC)C(C)=CC(C)(C)N3)c(OC)c1 [Compound 4-18, 5-(2-Methoxyphenylaminomethyl)-6-(2-methoxy-4-propylsulfonyloxyphenyl)-2,2,4-trimethyl-1,2-dihydroquinoline] | 30% | 89% | 21%
